Experimental data published in patent publication US20060189675A1, “Crystalline form of a drug” (priority 2004, published 2006).
In brackets after ≈: the same amount, converted by molar mass.

Test: Solubility of Atrasentan Hydrochloride Crystalline Forms in 1,4-dioxane
Assay type: physicochemical
Conditions: 25° C., n=3
Experimental: The solubility (in mg/mL) of Atrasentan Hydrochloride Crystalline Forms 1, 2 and 3 in 1,4-dioxane at 25° C.

solubility in 1,4-dioxane	Compound
35.60 ± 1.82 mg/mL (≈ 69.7 mM)	CCCCN(CCCC)C(=O)CN1C[C@H](c2ccc3c(c2)OCO3)[C@@H](C(=O)O)[C@@H]1c1ccc(OC)cc1 [Form 1, (2R,3R,4S)-(+)-2-(4-methoxyphenyl)-4-(1,3-benzodioxol-5-yl)-1-(N,N-di(n-butyl)aminocarbonylmethyl)pyrrolidine-3-carboxylic acid]
16.66 ± 0.22 mg/mL (≈ 32.6 mM)	CCCCN(CCCC)C(=O)CN1C[C@H](c2ccc3c(c2)OCO3)[C@@H](C(=O)O)[C@@H]1c1ccc(OC)cc1 [Form 2, (2R,3R,4S)-(+)-2-(4-methoxyphenyl)-4-(1,3-benzodioxol-5-yl)-1-(N,N-di(n-butyl)aminocarbonylmethyl)pyrrolidine-3-carboxylic acid]
16.53 ± 0.22 mg/mL (≈ 32.4 mM)	CCCCN(CCCC)C(=O)CN1C[C@H](c2ccc3c(c2)OCO3)[C@@H](C(=O)O)[C@@H]1c1ccc(OC)cc1 [Form 3, (2R,3R,4S)-(+)-2-(4-methoxyphenyl)-4-(1,3-benzodioxol-5-yl)-1-(N,N-di(n-butyl)aminocarbonylmethyl)pyrrolidine-3-carboxylic acid]
